Data published in PubChem BioAssay AID1259407 (Chemical Carcinogenesis Research Information System (CCRIS), 2018).
Active and inactive are the calls of the source. No rule for the calls is given here.

Test system: CCRIS mutagenicity, Ames/micronucleus/aberration tests
Assay: CCRIS mutagenicity studies
[1] = Test System: AMES SALMONELLA TYPHIMURIUM, Strain/Indicator: TA98, Metabolic Activation: NONE, Method: STANDARD PLATE
[2] = Test System: AMES SALMONELLA TYPHIMURIUM, Strain/Indicator: TA98, Metabolic Activation: RAT, LIVER, S-9, AROCLOR 1254, Method: STANDARD PLATE
[3] = Test System: AMES SALMONELLA TYPHIMURIUM, Strain/Indicator: TA100, Metabolic Activation: NONE, Method: STANDARD PLATE
[4] = Test System: AMES SALMONELLA TYPHIMURIUM, Strain/Indicator: TA100, Metabolic Activation: RAT, LIVER, S-9, AROCLOR 1254, Method: STANDARD PLATE
[5] = Test System: AMES SALMONELLA TYPHIMURIUM, Strain/Indicator: TA1535, Metabolic Activation: NONE, Method: STANDARD PLATE
[6] = Test System: AMES SALMONELLA TYPHIMURIUM, Strain/Indicator: TA1535, Metabolic Activation: RAT, LIVER, S-9, AROCLOR 1254, Method: STANDARD PLATE
[7] = Test System: AMES SALMONELLA TYPHIMURIUM, Strain/Indicator: TA1537, Metabolic Activation: NONE, Method: STANDARD PLATE
[8] = Test System: AMES SALMONELLA TYPHIMURIUM, Strain/Indicator: TA1537, Metabolic Activation: RAT, LIVER, S-9, AROCLOR 1254, Method: STANDARD PLATE

Row | SMILES | mutagenic call [1] | mutagenic call [2] | mutagenic call [3] | mutagenic call [4] | mutagenic call [5] | mutagenic call [6] | mutagenic call [7] | mutagenic call [8] | further results
1 | COc1cc([C@@H]2c3cc4c(cc3[C@H](O)[C@H]3COC(=O)[C@H]23)OCO4)cc(OC)c1OC | inactive; negative | inactive; negative | inactive; negative | inactive; negative | inactive; negative | inactive; negative | inactive; negative | inactive; negative | mutagenic call (Test System: AMES SALMONELLA TYPHIMURIUM, Strain/Indicator: TA98, Metabolic Activation: HAMSTER, LIVER, S-9, AROCLOR 1254, Method: STANDARD PLATE): inactive; negative; mutagenic call (Test System: AMES SALMONELLA TYPHIMURIUM, Strain/Indicator: TA100, Metabolic Activation: HAMSTER, LIVER, S-9, AROCLOR 1254, Method: STANDARD PLATE): inactive; negative; mutagenic call (Test System: AMES SALMONELLA TYPHIMURIUM, Strain/Indicator: TA102, Metabolic Activation: NONE, Method: STANDARD PLATE): inactive; negative; mutagenic call (Test System: AMES SALMONELLA TYPHIMURIUM, Strain/Indicator: TA102, Metabolic Activation: RAT, LIVER, S-9, AROCLOR 1254, Method: STANDARD PLATE): inactive; negative; mutagenic call (Test System: AMES SALMONELLA TYPHIMURIUM, Strain/Indicator: TA1535, Metabolic Activation: HAMSTER, LIVER, S-9, AROCLOR 1254, Method: STANDARD PLATE): inactive; negative; mutagenic call (Test System: AMES SALMONELLA TYPHIMURIUM, Strain/Indicator: TA1537, Metabolic Activation: HAMSTER, LIVER, S-9, AROCLOR 1254, Method: STANDARD PLATE): inactive; negative; mutagenic call (Test System: MOUSE LYMPHOMA, Strain/Indicator: L5178Y (TK+/TK-), Metabolic Activation: NONE, Method: SUSPENSION/PLATE): inactive; negative. reevaluation of results: negative; mutagenic call (Test System: MOUSE LYMPHOMA, Strain/Indicator: L5178Y (TK+/TK-), Metabolic Activation: RAT, LIVER, S-9, AROCLOR 1254, Method: SUSPENSION/PLATE): inactive; negative. reevaluation of results: negative
2 | c1cnc2c(c1)[C@@H]1O[C@H]1C1OC21 (stereo partly specified) |  |  | inactive; negative |  |  |  |  |  | mutagenic call (Test System: AMES SALMONELLA TYPHIMURIUM, Strain/Indicator: TA100, Metabolic Activation: RAT, LIVER, S-9, AROCLOR 1254 (10% OR 20%), Method: STANDARD PLATE): inactive; negative
3 | COc1ccc([C@H]2O[C@H]2C)cc1 |  |  |  |  |  |  |  |  | mutagenic call (Test System: AMES SALMONELLA TYPHIMURIUM, Strain/Indicator: TA98, Metabolic Activation: NONE, Method: PREINCUBATION): inactive; negative; mutagenic call (Test System: AMES SALMONELLA TYPHIMURIUM, Strain/Indicator: TA100, Metabolic Activation: NONE, Method: PREINCUBATION): active; positive; mutagenic call (Test System: AMES SALMONELLA TYPHIMURIUM, Strain/Indicator: TA1535, Metabolic Activation: NONE, Method: PREINCUBATION): active; positive
4 | CN1CCN=C(c2ccccc2)c2cc(Cl)ccc21 | inactive; negative | inactive; negative | inactive; negative | inactive; negative | inactive; negative | inactive; negative | inactive; negative | inactive; negative | 
5 | Cn1c(NO)nc2ncc(-c3ccccc3)cc21 | active; positive | active; positive |  |  |  |  |  |  | mutagenic call (Test System: AMES SALMONELLA TYPHIMURIUM, Strain/Indicator: TA98(1,8-DNP6), Metabolic Activation: NONE, Method: STANDARD PLATE): active; positive
6 | Cc1c(C)c2c(c(C)c1O)CC[C@@](C)(CCC[C@H](C)CCC[C@H](C)CCCC(C)C)O2 | inactive; negative | inactive; negative | inactive; negative | inactive; negative | inactive; negative | inactive; negative | inactive; negative | inactive; negative | mutagenic call (Test System: AMES SALMONELLA TYPHIMURIUM, Strain/Indicator: TA1538, Metabolic Activation: NONE, Method: STANDARD PLATE): inactive; negative; mutagenic call (Test System: AMES SALMONELLA TYPHIMURIUM, Strain/Indicator: TA1538, Metabolic Activation: RAT, LIVER, S-9, AROCLOR 1254, Method: STANDARD PLATE): inactive; negative; mutagenic call (Test System: E. COLI, Strain/Indicator: WP2, Metabolic Activation: NONE, Method: STANDARD PLATE): inactive; negative; mutagenic call (Test System: E. COLI, Strain/Indicator: WP2, Metabolic Activation: RAT, LIVER, S-9, AROCLOR 1254, Method: STANDARD PLATE): inactive; negative
7 | O=[N+]([O-])c1cc([N+](=O)[O-])c2c3c(c4cccc5ccc1c2c54)CCCC3 | active; positive | active; positive |  |  |  |  |  |  | 
